Test results from ChEMBL document CHEMBL5291721, “A preclinical secondary pharmacology resource illuminates target-adverse drug reaction associations of marketed drugs” (Nat Commun, 2023).

What was measured:
Adenosine receptor A2a = Adenosine receptor A2a (Homo sapiens, UniProt P29274)
[1] = biological target: T1, Alpha-2A adrenergic receptor (Homo sapiens, UniProt P08913); assay type: functional, cell-based
T1 sequence (P08913 whole entry): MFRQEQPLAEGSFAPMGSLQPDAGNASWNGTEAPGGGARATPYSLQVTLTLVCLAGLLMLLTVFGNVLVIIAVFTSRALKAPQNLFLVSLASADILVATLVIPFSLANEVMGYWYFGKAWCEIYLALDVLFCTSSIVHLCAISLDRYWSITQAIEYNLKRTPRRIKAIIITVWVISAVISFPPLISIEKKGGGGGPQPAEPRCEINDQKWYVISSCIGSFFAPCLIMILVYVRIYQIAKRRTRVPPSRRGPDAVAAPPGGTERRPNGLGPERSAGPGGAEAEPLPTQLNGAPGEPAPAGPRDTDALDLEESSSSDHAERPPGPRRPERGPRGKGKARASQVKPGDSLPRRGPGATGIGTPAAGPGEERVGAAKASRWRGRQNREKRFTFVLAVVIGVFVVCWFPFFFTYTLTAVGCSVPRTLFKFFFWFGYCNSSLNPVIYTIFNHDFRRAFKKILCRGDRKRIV

Vasopressin V2 receptor = Vasopressin V2 receptor (Homo sapiens, UniProt P30518)
B2 bradykinin receptor = biological target: T2, B2 bradykinin receptor (Homo sapiens, UniProt P30411)
T2 sequence (P30411 whole entry): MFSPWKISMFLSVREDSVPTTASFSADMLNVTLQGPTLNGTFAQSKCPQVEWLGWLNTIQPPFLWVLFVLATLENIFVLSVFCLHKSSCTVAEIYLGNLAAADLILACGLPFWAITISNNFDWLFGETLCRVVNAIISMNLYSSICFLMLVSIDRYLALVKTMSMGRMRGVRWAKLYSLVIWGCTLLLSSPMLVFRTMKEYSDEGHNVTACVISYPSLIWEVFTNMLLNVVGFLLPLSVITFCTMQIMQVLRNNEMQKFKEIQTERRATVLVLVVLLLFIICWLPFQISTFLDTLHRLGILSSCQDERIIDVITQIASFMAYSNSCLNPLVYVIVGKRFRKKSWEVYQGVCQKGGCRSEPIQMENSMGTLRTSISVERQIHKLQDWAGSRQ

[2] = biological target: T3, Gastrin/cholecystokinin type B receptor (Homo sapiens, UniProt P32239)
T3 sequence (P32239 whole entry): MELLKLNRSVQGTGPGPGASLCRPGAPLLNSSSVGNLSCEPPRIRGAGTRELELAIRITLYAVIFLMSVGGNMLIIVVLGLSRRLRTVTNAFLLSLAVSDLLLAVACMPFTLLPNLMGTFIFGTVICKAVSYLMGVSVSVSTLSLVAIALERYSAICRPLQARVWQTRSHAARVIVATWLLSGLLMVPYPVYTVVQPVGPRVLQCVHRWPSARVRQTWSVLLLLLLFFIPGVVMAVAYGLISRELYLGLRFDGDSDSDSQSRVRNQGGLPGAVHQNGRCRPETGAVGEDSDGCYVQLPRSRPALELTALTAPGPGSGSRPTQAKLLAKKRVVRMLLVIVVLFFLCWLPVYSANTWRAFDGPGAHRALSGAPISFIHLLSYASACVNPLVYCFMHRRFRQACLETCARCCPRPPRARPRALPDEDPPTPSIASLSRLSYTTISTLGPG

Cannabinoid receptor 1 = Cannabinoid receptor 1 (Homo sapiens, UniProt P21554); assay type: functional, cell-based
[3] = biological target: Gamma-aminobutyric acid receptor subunit alpha-1 (Rattus norvegicus, UniProt P62813); assay type: functional
[4] = biological target: 5-hydroxytryptamine receptor 2B (Homo sapiens, UniProt P41595); assay type: functional, cell-based
Motilin receptor = Motilin receptor (Homo sapiens, UniProt O43193)
[5] = biological target: Kappa-type opioid receptor (Homo sapiens, UniProt P41145)
Mu-type opioid receptor = Mu-type opioid receptor (Homo sapiens, UniProt P35372)
D(3) dopamine receptor = D(3) dopamine receptor (Homo sapiens, UniProt P35462)
[6] = biological target: T4, Alpha-2B adrenergic receptor (Homo sapiens, UniProt P18089)
T4 sequence (P18089 whole entry): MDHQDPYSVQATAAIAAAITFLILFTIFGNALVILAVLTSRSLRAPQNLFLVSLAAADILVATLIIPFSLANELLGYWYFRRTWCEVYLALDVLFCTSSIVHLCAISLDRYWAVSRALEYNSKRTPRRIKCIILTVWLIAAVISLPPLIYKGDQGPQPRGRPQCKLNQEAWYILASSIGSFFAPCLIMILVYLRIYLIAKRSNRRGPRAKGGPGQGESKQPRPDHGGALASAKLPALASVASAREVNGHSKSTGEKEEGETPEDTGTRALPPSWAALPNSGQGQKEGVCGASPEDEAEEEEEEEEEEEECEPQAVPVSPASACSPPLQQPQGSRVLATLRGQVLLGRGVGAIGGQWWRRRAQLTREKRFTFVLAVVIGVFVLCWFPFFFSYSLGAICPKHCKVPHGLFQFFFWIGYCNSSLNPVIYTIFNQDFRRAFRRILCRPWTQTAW

Estrogen receptor = biological target: T5, Estrogen receptor (Homo sapiens, UniProt P03372)
T5 sequence (P03372 whole entry): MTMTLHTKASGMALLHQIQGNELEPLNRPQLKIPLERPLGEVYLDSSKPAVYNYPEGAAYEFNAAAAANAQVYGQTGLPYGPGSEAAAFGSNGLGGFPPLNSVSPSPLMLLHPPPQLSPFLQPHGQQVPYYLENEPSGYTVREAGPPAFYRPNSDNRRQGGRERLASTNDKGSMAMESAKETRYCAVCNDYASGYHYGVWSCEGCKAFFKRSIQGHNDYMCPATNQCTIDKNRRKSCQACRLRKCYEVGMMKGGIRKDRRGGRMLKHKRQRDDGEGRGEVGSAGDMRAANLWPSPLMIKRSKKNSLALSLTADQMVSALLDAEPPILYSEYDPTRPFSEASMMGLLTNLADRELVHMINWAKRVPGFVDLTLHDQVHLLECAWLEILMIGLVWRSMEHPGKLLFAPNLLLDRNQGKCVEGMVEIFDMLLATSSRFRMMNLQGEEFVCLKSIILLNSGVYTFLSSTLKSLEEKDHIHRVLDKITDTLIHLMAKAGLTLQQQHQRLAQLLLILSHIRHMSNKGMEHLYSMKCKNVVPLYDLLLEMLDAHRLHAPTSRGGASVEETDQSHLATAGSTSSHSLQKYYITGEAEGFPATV
Also: assay procedure not described here.

Sequence of Mu-type opioid receptor (P35372 whole entry): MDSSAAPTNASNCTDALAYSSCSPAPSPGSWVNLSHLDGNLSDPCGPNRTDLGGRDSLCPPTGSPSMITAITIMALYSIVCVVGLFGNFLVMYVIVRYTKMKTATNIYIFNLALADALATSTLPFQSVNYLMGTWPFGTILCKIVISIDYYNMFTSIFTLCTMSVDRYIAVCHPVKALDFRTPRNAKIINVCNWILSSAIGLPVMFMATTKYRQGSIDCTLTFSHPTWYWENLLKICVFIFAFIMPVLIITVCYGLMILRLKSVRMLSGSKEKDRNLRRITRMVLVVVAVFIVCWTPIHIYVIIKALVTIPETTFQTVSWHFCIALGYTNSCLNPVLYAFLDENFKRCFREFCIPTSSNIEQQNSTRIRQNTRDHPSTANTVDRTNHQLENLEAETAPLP
Sequence of Motilin receptor (O43193 whole entry): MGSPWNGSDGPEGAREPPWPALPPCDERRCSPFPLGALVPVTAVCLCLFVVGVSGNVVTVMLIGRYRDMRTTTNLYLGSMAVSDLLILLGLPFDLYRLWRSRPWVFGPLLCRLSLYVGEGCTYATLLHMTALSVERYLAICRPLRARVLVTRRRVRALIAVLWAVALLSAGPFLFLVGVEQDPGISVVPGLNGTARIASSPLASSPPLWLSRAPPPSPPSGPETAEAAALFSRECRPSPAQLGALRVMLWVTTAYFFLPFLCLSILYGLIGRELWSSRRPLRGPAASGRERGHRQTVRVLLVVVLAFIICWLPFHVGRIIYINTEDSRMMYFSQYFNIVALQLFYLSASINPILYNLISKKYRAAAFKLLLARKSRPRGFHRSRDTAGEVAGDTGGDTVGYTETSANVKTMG
Sequence of Kappa-type opioid receptor (P41145 whole entry): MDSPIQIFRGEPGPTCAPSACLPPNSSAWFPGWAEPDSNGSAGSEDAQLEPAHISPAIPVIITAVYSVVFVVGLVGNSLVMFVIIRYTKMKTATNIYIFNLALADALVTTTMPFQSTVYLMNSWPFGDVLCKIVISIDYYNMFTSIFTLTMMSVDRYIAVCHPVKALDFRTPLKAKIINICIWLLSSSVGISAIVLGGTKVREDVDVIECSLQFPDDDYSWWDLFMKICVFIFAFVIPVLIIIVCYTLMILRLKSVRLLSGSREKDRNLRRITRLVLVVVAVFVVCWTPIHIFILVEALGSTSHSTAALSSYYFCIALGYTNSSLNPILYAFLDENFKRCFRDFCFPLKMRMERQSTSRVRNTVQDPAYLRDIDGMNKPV
Sequence of 5-hydroxytryptamine receptor 2B (P41595 whole entry): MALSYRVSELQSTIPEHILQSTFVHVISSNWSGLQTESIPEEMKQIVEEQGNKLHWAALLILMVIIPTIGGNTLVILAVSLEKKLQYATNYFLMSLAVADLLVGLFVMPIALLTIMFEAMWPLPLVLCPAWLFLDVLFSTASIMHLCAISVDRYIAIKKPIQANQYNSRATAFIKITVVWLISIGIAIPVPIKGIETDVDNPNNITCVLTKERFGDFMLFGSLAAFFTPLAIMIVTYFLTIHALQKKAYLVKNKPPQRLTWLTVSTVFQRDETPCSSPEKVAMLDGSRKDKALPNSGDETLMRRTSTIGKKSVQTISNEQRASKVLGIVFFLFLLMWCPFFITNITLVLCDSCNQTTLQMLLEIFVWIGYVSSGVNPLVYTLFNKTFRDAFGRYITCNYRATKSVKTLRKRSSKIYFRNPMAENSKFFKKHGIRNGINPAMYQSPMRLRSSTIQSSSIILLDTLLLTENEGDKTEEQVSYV
Sequence of Vasopressin V2 receptor (P30518 whole entry): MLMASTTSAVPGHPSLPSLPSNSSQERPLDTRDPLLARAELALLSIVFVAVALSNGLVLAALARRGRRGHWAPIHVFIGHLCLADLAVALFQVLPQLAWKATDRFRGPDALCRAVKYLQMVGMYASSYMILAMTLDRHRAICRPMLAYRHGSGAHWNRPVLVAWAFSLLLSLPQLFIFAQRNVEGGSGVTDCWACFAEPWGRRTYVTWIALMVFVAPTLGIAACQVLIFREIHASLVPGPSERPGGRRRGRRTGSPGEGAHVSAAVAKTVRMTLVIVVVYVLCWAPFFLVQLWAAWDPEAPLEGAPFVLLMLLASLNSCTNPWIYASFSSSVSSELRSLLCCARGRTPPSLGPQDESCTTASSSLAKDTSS
Sequence of D(3) dopamine receptor (P35462 whole entry): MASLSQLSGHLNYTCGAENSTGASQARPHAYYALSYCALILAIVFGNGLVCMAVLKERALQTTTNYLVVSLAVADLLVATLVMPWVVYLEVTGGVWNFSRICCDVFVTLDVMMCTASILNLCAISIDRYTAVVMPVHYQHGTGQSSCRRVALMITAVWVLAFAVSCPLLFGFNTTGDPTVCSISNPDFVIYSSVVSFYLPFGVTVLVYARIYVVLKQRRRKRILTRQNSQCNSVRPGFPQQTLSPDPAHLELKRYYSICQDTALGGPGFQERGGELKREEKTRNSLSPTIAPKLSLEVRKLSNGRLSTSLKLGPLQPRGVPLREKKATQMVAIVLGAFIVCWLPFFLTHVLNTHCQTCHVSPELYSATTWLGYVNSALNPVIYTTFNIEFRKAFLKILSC
Sequence of Adenosine receptor A2a (P29274 whole entry): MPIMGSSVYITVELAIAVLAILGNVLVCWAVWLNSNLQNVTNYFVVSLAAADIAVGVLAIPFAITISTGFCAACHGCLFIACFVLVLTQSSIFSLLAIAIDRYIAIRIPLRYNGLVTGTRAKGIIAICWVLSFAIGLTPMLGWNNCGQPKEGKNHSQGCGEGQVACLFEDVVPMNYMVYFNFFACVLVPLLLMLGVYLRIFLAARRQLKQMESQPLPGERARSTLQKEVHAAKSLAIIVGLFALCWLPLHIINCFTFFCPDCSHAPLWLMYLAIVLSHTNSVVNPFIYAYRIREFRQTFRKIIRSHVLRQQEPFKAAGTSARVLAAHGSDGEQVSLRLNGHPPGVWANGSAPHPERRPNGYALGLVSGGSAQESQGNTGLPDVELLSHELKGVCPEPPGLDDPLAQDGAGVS
Sequence of Gamma-aminobutyric acid receptor subunit alpha-1 (P62813 whole entry): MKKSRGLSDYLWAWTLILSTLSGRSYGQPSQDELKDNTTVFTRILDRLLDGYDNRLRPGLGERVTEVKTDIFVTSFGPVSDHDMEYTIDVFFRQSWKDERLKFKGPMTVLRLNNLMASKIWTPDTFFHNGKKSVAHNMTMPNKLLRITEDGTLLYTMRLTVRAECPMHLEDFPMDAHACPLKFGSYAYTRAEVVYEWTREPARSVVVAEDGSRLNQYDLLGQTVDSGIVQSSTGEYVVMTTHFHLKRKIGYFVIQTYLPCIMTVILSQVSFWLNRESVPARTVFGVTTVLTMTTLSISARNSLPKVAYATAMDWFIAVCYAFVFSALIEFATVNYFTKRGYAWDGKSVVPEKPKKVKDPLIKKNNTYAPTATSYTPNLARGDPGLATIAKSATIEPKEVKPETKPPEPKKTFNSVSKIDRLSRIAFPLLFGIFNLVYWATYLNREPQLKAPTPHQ
Sequence of Cannabinoid receptor 1 (P21554 whole entry): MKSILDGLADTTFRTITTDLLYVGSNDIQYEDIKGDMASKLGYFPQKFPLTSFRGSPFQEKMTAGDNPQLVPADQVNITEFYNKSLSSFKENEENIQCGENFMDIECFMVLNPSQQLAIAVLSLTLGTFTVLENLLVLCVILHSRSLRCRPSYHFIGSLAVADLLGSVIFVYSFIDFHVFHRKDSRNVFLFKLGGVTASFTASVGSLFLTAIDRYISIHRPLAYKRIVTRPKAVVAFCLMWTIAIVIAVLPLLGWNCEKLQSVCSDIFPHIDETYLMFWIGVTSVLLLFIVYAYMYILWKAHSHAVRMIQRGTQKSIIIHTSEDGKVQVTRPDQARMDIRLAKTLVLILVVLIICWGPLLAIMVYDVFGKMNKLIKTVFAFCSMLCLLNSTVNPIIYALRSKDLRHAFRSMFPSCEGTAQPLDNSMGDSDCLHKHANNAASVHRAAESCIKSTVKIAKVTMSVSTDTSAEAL

Compound | AC50 (Adenosine receptor A2a) [µM] | AC50 [1] [µM] | AC50 (Vasopressin V2 receptor) [µM] | AC50 (B2 bradykinin receptor) [µM] | AC50 [2] [µM] | AC50 (Cannabinoid receptor 1) [µM] | AC50 [3] [µM] | AC50 [4] [µM] | AC50 (Motilin receptor) [µM] | AC50 [5] [µM] | AC50 (Mu-type opioid receptor) [µM] | AC50 (D(3) dopamine receptor) [µM] | AC50 [6] [µM] | AC50 (Estrogen receptor) [µM]
CC1=C(CC(=O)O)c2cc(F)ccc2/C1=C\c1ccc([S+](C)[O-])cc1 (configuration not stated) | > 30 | > 10 | > 30 | > 30 | > 30 | > 30 | > 10 | > 10 | > 10 | > 10 | > 30 | > 30 |  | 
CNCCc1ccccn1 [BETAHISTINE] | > 30 | > 30 | > 30 | > 30 | > 30 | > 30 | > 30 | > 30 | > 30 | > 30 |  | > 30 |  | 
O=C(O)CCCC[C@@H]1SC[C@@H]2NC(=O)N[C@@H]21 [BIOTIN] | > 10 | > 10 | > 10 | > 10 |  |  |  | > 10 | > 10 | > 10 |  | > 30 | > 10 | > 10
CC(NC(C)(C)C)C(=O)c1cccc(Cl)c1 (configuration not stated) [BUPROPION] | > 30 | > 10 | > 30 | > 30 | > 30 | > 30 |  | > 10 | > 10 |  | > 10 | > 10 |  | 
CCCCOC(=O)c1ccc(N)cc1 [BUTAMBEN] | > 30 | > 30 | > 30 | > 30 | > 30 | > 30 | > 30 | > 30 | > 30 | > 30 |  | > 30 |  | > 30
CN(Cc1ccc(C(C)(C)C)cc1)Cc1cccc2ccccc12 [BUTENAFINE] | > 10 | > 10 | > 10 | > 10 |  |  | > 10 | > 10 | > 10 | > 10 | > 30 | > 30 |  | > 30
CC1CC(OC(=O)C(O)c2ccccc2)CC(C)(C)C1 (configuration not stated) [CYCLANDELATE] | > 10 | > 10 | > 10 | > 10 |  |  | > 10 | > 10 | > 10 | > 10 | > 30 | > 30 |  | > 30
OCCN(CCO)c1nc(N2CCCCC2)c2nc(N(CCO)CCO)nc(N3CCCCC3)c2n1 [DIPYRIDAMOLE] | > 30 | > 30 | > 30 | > 30 | > 30 |  | 1.4 | > 30 |  | > 30 |  | > 30 |  | > 30
